Patent publication US11110080B2, “Small molecule inhibitors of bacterial efflux pumps and methods of using same” (The Regents of the University of Colorado, a body Corporate, priority 2017, dated 2021)
“Also recorded” adds a separate entry of the source.

Tests used:
S.Tm efflux pumps = assay: Nile Red efflux assay; format: cell-based, Salmonella enterica serovar Typhimurium; conditions: for glucose-activated efflux of Nile Red: 100 μM; for Nile Red efflux after washout of compound: 15 minutes with compound, washed, then glucose; for Nile Red fluorescence in the absence of glucose (basal loss): no glucose
Excerpt: Because Hoechst and other dyes commonly used to assess efflux bind cellular components, direct measurement of efflux is not possible using these methods; instead, the Hoechst assay measures dye accumulation, the net result of entry and efflux. Further, the slow off-rate of Hoechst entails that efflux pumps have no effect on dye already bound to DNA. As a result, compounds which increase Hoechst accumulation may actually enhance dye entry by altering porins or disrupting the membrane. To more specifically measure efflux pump activity, a second technique was employed using the dye Nile Red, a lipophilic membrane-partitioning dye which fluoresces in nonpolar environments. Because Nile Red is not known to bind cellular components, to directly observe efflux cells were preloaded with the dye in the absence of glucose to reduce efflux pump activity (FIG. 7A). Upon addition of glucose, bacteria rapidly effluxed Nile Red and fluorescence returned to baseline levels (FIG. 7B, top panel). […] The initial measured fluorescence was lower for DMSO-treated cells (upper dotted line) than for PAβN-treated cells due to glucose-independent efflux during sample preparation (FIG. 8A). Next, it was determined whether efflux pump activity is restored after removal of PAβN. Bacteria were incubated with compound for 15 minutes, pelleted and resuspended in buffer lacking compound, and then stimulated with glucose (FIGS. 7C, 7E).
Nile Red assays were adapted from an established protocol. Briefly, overnight Salmonella cultures were grown in Mueller-Hinton cation-adjusted broth (Sigma), washed, and resuspended at an OD600 of 2.0. Cells were incubated in 10 μM Nile Red for 3 hours at 37° C. with aeration, then moved to room temperature for 1 hour. After pelleting at 2000× g, dye-loaded cells were aliquoted and combined with compound at the indicated concentrations. Two hundred microliters was loaded into 96-well black walled plates (Greiner) and read using a Varioskan Flash Multimode Reader with 540 nm excitation and 625 nm emission filters. We observed that during loading into plates (˜20 minutes), bacteria were able to efflux Nile Red even in the absence of glucose (FIG. 8A). To activate efflux, glucose was added to a final concentration of 2 mM. In some experiments, bacteria were treated with drug for 15 minutes, pelleted at 16,000×g, resuspended in fresh buffer, and stimulated with 2 mM glucose. All wash and incubation steps were performed in PBS with 1 mM MgCl2; incubations were performed in glass tubes to reduce adhesion of Nile Red.

[1] = tested on: S.Tm infection of C57BL/6 mice; assay: Mouse infection with S.Tm, tetracycline and EPM35 treatment
Procedure: Finally, whether EPM35 increased sensitivity of 510801 and wild-type S.Tm to tetracycline in vivo was tested. 7-week-old C57BL/6 mice were intraperitoneally infected with 1×10^4 bacteria. At 30 minutes and 24 hours post-infection, 25 mg/kg tetracycline and 50 mg/kg EPM35 was injected. […] Thus, the experiment was ended at 30 hours post-infection; the spleen and liver were harvested and plated to determine bacterial CFU.
These studies were carried out in strict accordance with the recommendations in the Guide for the Care and Use of Laboratory Animals of the National Institutes of Health, and all protocols were approved by the University of Colorado Institutional Committees for Biosafety and for Animal Care and Use. Bacteria were grown overnight in LB, then diluted in PBS. Seven week old C57/B16 female mice were intraperitoneally injected with 1×10^4S.Tm in 100 μL. Thirty minutes later, mice received two intraperitoneal injections: 25 mg/kg tetracycline in 150 μL PBS or PBS alone, and 50 mg/kg EPM35 in 100 μL DMSO or DMSO alone. Drug injections were repeated at 24 hours post-infection. At 30 hours post-infection, mice were humanely euthanized using carbon dioxide asphyxiation followed by cervical dislocation. Spleens and livers were harvested, homogenized, diluted in PBS, and plated to enumerate S.Tm CFUs.

HepG2 human liver cells = assay: LDH cytotoxicity assay; format: cell-based; conditions: 16 hours
Procedure: Cytoxocity was determined using the Pierce Lactate Dehydrogenase (LDH) Cytoxicity Assay. HepG2 liver cells were plated at 5×10^4 in 96 well tissue culture plates and allowed to settle overnight. Cells were treated with a 2-fold dilutions of each compound for 16 hours. Fifty microliters of conditioned media was mixed with the LDH assay reagent, incubated for 30 minutes, and absorbance was read at 490 and 680 nm. Curve fitting to determine CC50s was performed using GraphPad Prism; the CC50 is defined as 50% of the maximum LDH release as determined by lysed macrophages. There was no spontaneous LDH release or LDH present in the media.

[2] = Log D, solubility and predicted bioavailability; format: physicochemical; conditions: aqueous

| SMILES | glucose-activated efflux of Nile Red (S.Tm efflux pumps) | Nile Red efflux after washout of compound (S.Tm efflux pumps) | Nile Red fluorescence in the absence of glucose (basal loss) (S.Tm efflux pumps) | signs in treated mice ([1]; 50 mg/kg intraperitoneal at 30 minutes and 24 hours post-infection) | bacterial CFU in spleen and liver, co-treatment with tetracycline ([1]; S10801-infected mice, 25 mg/kg tetracycline + 50 mg/kg EPM35) | enhanced decrease of CFU on co-treatment with tetracycline ([1]; mice infected with wild-type bacteria, 25 mg/kg tetracycline + 50 mg/kg EPM35) | toxicity in HepG2 LDH assays (HepG2 human liver cells) | solubility [2] |
| --- | --- | --- | --- | --- | --- | --- | --- | --- |
| OC(COc1ccc(Cl)c(Cl)c1)CN1CCC(Nc2nccc(C(F)(F)F)n2)CC1 (centres unmarked) [EPM35] | fully inhibited efflux | remained unable to efflux | inhibit basal loss of Nile Red | Distress was observed | appeared to further reduce bacterial CFU | not observed |  |  |
| Cc1ccc(Sc2cccc3nc(N)nc(N)c23)cc1 [EPM43] | only partially inhibited efflux | partially effluxed Nile Red after compound washout; also recorded: partially restored Nile Red export | inhibit basal loss of Nile Red |  |  |  | less toxic to HepG2 cells than the other EPMs | poor aqueous solubility |
